In US20080021056A1, “Fused, Tricyclic Sulfonamide Inhibitors of Gamma Secretase” (priority 2006, published 2008):
Where “and” joins values, the source holds several entries; their conditions need not be identical. Identical values can stand only once.

Target: T1, gamma-secretase (Homo sapiens, UniProt P49768)
T1 construct: partially purified extract of IMR-32 cell membranes as the gamma-secretase enzyme preparation; endogenous in cells; host or cells: IMR-32 cell membranes (partially purified extract)
Test: Gamma-secretase APP enzyme assay
Format: biochemical
Conditions: cleavage of MBP-C125 Swe substrate at the Aβ40 site, partially purified extract of IMR-32 cell membranes, ELISA
From the text: The gamma-secretase APP enzyme assay was designed to measure the specific proteolytic cleavage of an APP substrate (MBP-C125 Swe fusion protein) at the Aβ40 site. The assay used a partially purified extract of IMR-32 cell membranes as the gamma-secretase enzyme preparation and a recombinant fusion protein containing the C-terminal 125 amino acids of the Swedish variant of the APP (MBP-C125swe) as the substrate. This assay involved two steps beginning with the enzymatic reaction generating a cleavage product that was captured with an immobilized antibody specific for the neo-epitope Aβ40 site. The captured cleavage product was then detected in a sandwich ELISA assay with a biotinylated reporter antibody that is specific to Aβ (17-28). Streptavidin-linked alkaline phosphatase was then added that would generate a fluorescent signal proportional to the amount of cleavage product. This assay was used to discover small molecule inhibitors of gamma-secretase.
Briefly, a 149 mg/ml solution of BIGCHAP detergent was made with water at 42° C. and then rotated for 30 minutes at the same temperatures This warmed solution of BigCHAPS (N,N-Bis(3-D-gluconamidopropyl)cholamide) detergent was used to dissolve Brain Extract Type-V (lipid containing a minimum of 40% phosphatidylethanolamine) from Signa (St. Louis, Mo.) to a concentration of 8 mg/ml. This solution containing BigCHAPS and lipid at 8 mg/ml is then diluted to 0.53 mg/ml lipid with a pre-warmed solution of Hepes and sodium chloride. This final solution containing Hepes buffer, sodium chloride, BigCHAPS detergent and lipid is used to create working solutions of both gamma-secretase (25 Units) and the MBP-C125 substrate (0.05 mg/ml).
Gamma-secretase was then added to a 96-well micro-titre plate and then incubated with various concentrations of inhibitor for 30 minutes at 37° C. MBPC125 substrate was then added to initiate the reaction that would run for two hours at 37° C. The reaction was quenched with the addition of SDS to a final concentration of 0.1% and then 100 μl of the reaction mixture was transferred to a capture ELISA plate and incubated overnight at 4° C. Detection of the cleavage product was performed using a standard sandwich ELISA assay and quantified using a six point standard curve.

SMILES	IC50 (enantiomer A)	IC50 (enantiomer B)	IC50
O=S(=O)(c1ccc(Cl)s1)N1c2cc(F)c(F)cc2-c2n[nH]cc2C1C1CC1 (single isomer, unassigned) [5-(5-chlorothiophen-2-ylsulfonyl)-4-cyclopropyl-7,8-difluoro-4,5-dihydro-2H-pyrazolo[4,3-c]quinoline]	0.1 to 100 nM	0.1 to 100 nM	
O=c1c2cn[nH]c2c2ccccc2n1S(=O)(=O)c1ccc(Cl)cc1 [5-[(4-chlorophenyl)sulfonyl]-1,5-dihydro-4H-pyrazolo[4,3-c]quinolin-4-one]			101 to 500 nM
CC1c2c[nH]nc2-c2ccc(OC(=O)N(C)C)cc2N1S(=O)(=O)c1ccc(Cl)cc1 (stereo not shown) [5-(4-chlorophenylsulfonyl)-4-methyl-4,5-dihydro-1H-pyrazolo[4,3-c]quinolin-7-yl dimethylcarbamate]			0.1 to 100 nM
CC1c2c[nH]nc2-c2cc(F)ccc2N1S(=O)(=O)c1cn(C)cn1 (stereo not shown) [8-fluoro-4-methyl-5-(1-methyl-1H-imidazol-4-ylsulfonyl)-4,5-dihydro-1H-pyrazolo[4,3-c]quinoline]			1000 to 10000 nM
Cc1noc(C)c1S(=O)(=O)N1c2ccc(F)cc2-c2[nH]ncc2C1C (stereo not shown) [4-(8-fluoro-4-methyl-1H-pyrazolo[4,3-c]quinolin-5(4H)-ylsulfonyl)-3,5-dimethylisoxazole]			501 to 1000 nM
CC1c2cn[nH]c2-c2cc(F)ccc2N1S(=O)(=O)c1ccccn1 (stereo not shown) [8-fluoro-4-methyl-5-(pyridin-2-ylsulfonyl)-4,5-dihydro-1H-pyrazolo[4,3-c]quinoline]			101 to 500 nM and 0.1 to 100 nM
CC1c2cn[nH]c2-c2ccc(O)cc2N1S(=O)(=O)c1ccc(Cl)cc1 (single isomer, unassigned) [5-(4-chlorophenylsulfonyl)-4-methyl-4,5-dihydro-1H-pyrazolo[4,3-c]quinolin-7-ol]	0.1 to 100 nM	0.1 to 100 nM	
O=S(=O)(c1ccc(Cl)cc1)N1c2nccn2-c2[nH]ncc2C1C1CC1 (stereo not shown) [5-(4-chlorophenylsulfonyl)-4-cyclopropyl-4,5-dihydro-1H-imidazo[1,2-a]pyrazolo[4,3-e]pyrimidine]			101 to 500 nM
O=S(=O)(c1ccc(Cl)cc1)N1Cc2c[nH]nc2-c2c(F)cccc21 [5-[(4-chlorophenyl}sulfonyl]-9-fluoro-4,5-dihydro-2H-pyrazolo[4,3-c]quinoline]			0.1 to 100 nM
CC1c2cnc(N)nc2-c2cc(F)ccc2N1S(=O)(=O)c1ccc(F)cc1 (single isomer, unassigned) [9-fluoro-6-(4-fluorophenylsulfonyl)-5-methyl-5,6-dihydropyrimido[5,4-c]quinolin-2-amine]	1000 to 10000 nM	101 to 500 nM	
O=S(=O)(c1ccc(Cl)cn1)N1c2ccc(F)cc2-c2n[nH]cc2C1C1CC1 (stereo not shown) [5-(5-chloropyridin-2-ylsulfonyl)-4-cyclopropyl-8-fluoro-4,5-dihydro-1H-pyrazolo[4,3-c]quinoline]			0.1 to 100 nM
CC1c2c[nH]nc2-c2ccc(F)cc2N1S(=O)(=O)c1ccc(Cl)cc1 (stereo not shown) [5-(4-chlorophenylsulfonyl)-7-fluoro-4-methyl-4,5-dihydro-2H-pyrazolo[4,3-c]quinoline]			0.1 to 100 nM
O=S(=O)(c1ncc(Cl)s1)N1c2cc(F)c(F)cc2-c2n[nH]cc2C1C1CC1 (stereo not shown) [5-chloro-2-(4-cyclopropyl-7,8-difluoro-1H-pyrazolo[4,3-c]quinolin-5(4H)-ylsulfonyl)thiazole]			0.1 to 100 nM
O=S(=O)(c1ccc(Cl)cc1)N1c2ccccc2-c2n[nH]cc2C1C1CC1 (stereo not shown) [5-(4-chlorophenylsulfonyl)-4-cyclopropyl-4,5-dihydro-2H-pyrazolo[4,3-c]quinoline]			0.1 to 100 nM
O=S(=O)(c1ccc(C(F)(F)F)nc1)N1c2ccccc2-c2[nH]ncc2C1C1CC1 (stereo not shown) [4-cyclopropyl-5-(6-(trifluoromethyl)pyridin-3-ylsulfonyl)-4,5-dihydro-1H-pyrazolo[4,3-c]quinoline]			0.1 to 100 nM
O=S(=O)(c1ccc(Cl)cc1)N1Cc2c[nH]nc2-c2ccccc21 [5-[(4-chlorophenyl)sulfonyl]-4,5-dihydro-1H-pyrazolo[4,3-c]quinoline]			0.1 to 100 nM
CC1c2c[nH]nc2-c2cc(F)c(F)cc2N1S(=O)(=O)c1ccc(Cl)cc1 (single isomer, unassigned) [5-(4-chlorophenylsulfonyl)-7,8-difluoro-4-methyl-4,5-dihydro-2H-pyrazolo[4,3-c]quinoline]	0.1 to 100 nM	0.1 to 100 nM	

Next, values leading:

IC50 (enantiomer A)	IC50 (enantiomer B)	IC50	SMILES
		0.1 to 100 nM	O=S(=O)(c1ccc(C(F)(F)F)cc1)N1c2cc(F)c(F)cc2-c2[nH]ncc2C1C1CC1 (racemic) [4-cyclopropyl-7,8-difluoro-5-(4-(trifluoromethyl)phenylsulfonyl)-4,5-dihydro-1H-pyrazolo[4,3-c]quinoline]
		0.1 to 100 nM	O=S(=O)(c1ccc(Cl)cc1)N1c2ccccc2-c2n[nH]cc2C1C(F)(F)F (stereo not shown) [5-(4-chlorophenylsulfonyl)-4-(trifluoromethyl)-4,5-dihydro-2H-pyrazolo[4,3-c]quinoline]
		0.1 to 100 nM	O=S(=O)(c1ccc(C(F)(F)F)cc1)N1c2ccc(F)cc2-c2[nH]ncc2C1C1CC1 (racemic) [4-cyclopropyl-8-fluoro-5-(4-(trifluoromethyl)phenylsulfonyl)-4,5-dihydro-1H-pyrazolo[4,3-c]quinoline]
		0.1 to 100 nM	CC1c2cn[nH]c2-c2cc(O)c(O)cc2N1S(=O)(=O)c1ccc(Cl)cc1 (stereo not shown) [5-(4-chlorophenylsulfonyl)-4-methyl-4,5-dihydro-1H-pyrazolo[4,3-c]quinoline-7,8-diol]
		0.1 to 100 nM	O=S(=O)(c1ccc(Cl)cc1)N1Cc2c[nH]nc2-c2ccc(F)cc21 [5-[(4-chlorophenyl)sulfonyl]-7-fluoro-4,5-dihydro-2H-pyrazolo[4,3-c]quinoline]
		0.1 to 100 nM	O=[N+]([O-])c1ccc(S(=O)(=O)N2c3cc(F)c(F)cc3-c3[nH]ncc3[C@H]2C2CC2)cc1 [(R)-4-cyclopropyl-7,8-difluoro-5-(4-nitrophenylsulfonyl)-4,5-dihydro-1H-pyrazolo[4,3-c]quinoline]
		0.1 to 100 nM	CC1c2c[nH]nc2-c2ccccc2N1S(=O)(=O)c1ccc(Cl)cc1 (racemic) [5-[(4-chlorophenyl)sulfonyl]-4-methyl-4,5-dihydro-2H-pyrazolo[4,3-c]quinoline]
		0.1 to 100 nM	CC1c2c[nH]nc2-c2c(F)cccc2N1S(=O)(=O)c1ccc(Cl)cc1 (stereo not shown) [5-(4-chlorophenylsulfonyl)-9-fluoro-4-methyl-4,5-dihydro-2H-pyrazolo[4,3-c]quinoline]
		0.1 to 100 nM	O=S(=O)(c1ccc(OC(F)F)cc1)N1c2cc(F)c(F)cc2-c2[nH]ncc2[C@H]1C1CC1 [(R)-4-cyclopropyl-5-(4-(difluoromethoxy)phenylsulfonyl)-7,8-difluoro-4,5-dihydro-1H-pyrazolo[4,3-c]quinoline]
		0.1 to 100 nM	CC1c2c[nH]nc2-c2cccnc2N1S(=O)(=O)c1ccc(Cl)cc1 (stereo not shown) [5-(4-chlorophenylsulfonyl)-4-methyl-4,5-dihydro-2H-pyrazolo[4,3-c][1,8]naphthyridine]
		0.1 to 100 nM	O=S(=O)(c1ccc(Cl)cn1)N1c2cc(F)c(F)cc2-c2[nH]ncc2C1C1CC1 (stereo not shown) [5-(5-chloropyridin-2-ylsulfonyl)-4-cyclopropyl-7,8-difluoro-4,5-dihydro-1H-pyrazolo[4,3-c]quinoline]
		0.1 to 100 nM	O=S(=O)(c1ccc(C(F)(F)F)cn1)N1c2cc(F)c(F)cc2-c2[nH]ncc2C1C1CC1 (stereo not shown) [4-cyclopropyl-7,8-difluoro-5-(5-(trifluoromethyl)pyridin-2-ylsulfonyl)-4,5-dihydro-1H-pyrazolo[4,3-c]quinoline]
		0.1 to 100 nM	CC1c2c[nH]nc2-c2cc(F)c(F)cc2N1S(=O)(=O)c1cccs1 (stereo not shown) [7,8-difluoro-4-methyl-5-(thiophen-2-ylsulfonyl)-4,5-dihydro-2H-pyrazolo[4,3-c]quinoline]
		0.1 to 100 nM	O=S(=O)(c1ccc(OC(F)(F)F)cc1)N1c2cc(OC(F)(F)F)ccc2-c2n[nH]cc2[C@H]1C1CC1 [(R)-4-cyclopropyl-7-(trifluoromethoxy)-5-(4-(trifluoromethoxy)phenylsulfonyl)-4,5-dihydro-2H-pyrazolo[4,3-c]quinoline]
		0.1 to 100 nM	Cc1nc2c(s1)N(S(=O)(=O)c1ccc(C(F)(F)F)cc1)C(C1CC1)c1c[nH]nc1-2 (stereo not shown) [4-cyclopropyl-7-methyl-5-(4-(trifluoromethyl)phenylsulfonyl)-4,5-dihydro-1H-pyrazolo[3,4-d]thiazolo[5,4-b]pyridine]
		0.1 to 100 nM	O=S(=O)(c1ccc(F)cc1)N1c2cc(F)c(F)cc2-c2n[nH]cc2C1C1CC1 (single isomer, unassigned) [4-cyclopropyl-7,8-difluoro-5-(4-fluorophenylsulfonyl)-4,5-dihydro-2H-pyrazolo[4,3-c]quinoline]
